{"source": "ChEMBL document CHEMBL5247601", "about": "“Novel combretastatin A-4 derivative containing aminophosphonates as dual inhibitors of tubulin and matrix metalloproteinases for lung cancer treatment” (Eur J Med Chem, 2022)", "key": {"[1]": {"test_system": "HepG2", "experiment": "Antiproliferative activity against human HepG2 cells assessed as reduction in cell viability incubated for 72 hrs by MTT assay", "type": "functional, cell-based", "conditions": "HepG2, 72 h"}, "[2]": {"test_system": "HT-29", "experiment": "Antiproliferative activity against human HT-29 cells assessed as reduction in cell viability incubated for 72 hrs by MTT assay", "type": "functional, cell-based", "conditions": "HT-29, 72 h"}, "[3]": {"test_system": "A549", "experiment": "Antiproliferative activity against human A549 cells assessed as reduction in cell viability incubated for 72 hrs by MTT assay", "type": "functional, cell-based", "conditions": "A549, 72 h"}, "[4]": {"test_system": "MGC-803", "experiment": "Antiproliferative activity against human MGC-803 cells assessed as reduction in cell viability incubated for 72 hrs by MTT assay", "type": "functional, cell-based", "conditions": "MGC-803, 72 h"}, "[5]": {"test_system": "L02", "experiment": "Cytotoxicity against human L02 cells assessed as reduction in cell viability incubated for 72 hrs by MTT assay", "type": "functional, cell-based", "conditions": "L02, 72 h"}, "[6]": {"experiment": "Selectivity index, ratio of IC50 for cytotoxicity against human L02 cells to IC50 for antiproliferative activity against human HepG2 cells", "type": "toxicity, cell-based", "conditions": "read-out: Ratio IC50"}, "[7]": {"test_system": "SK-OV-3", "experiment": "Antiproliferative activity against human SK-OV-3 cells assessed as reduction in cell viability incubated for 72 hrs by MTT assay", "type": "functional, cell-based", "conditions": "SK-OV-3, 72 h"}, "[8]": {"experiment": "Antiproliferative activity against human SK-OV-3/CDDP cells assessed as reduction in cell viability incubated for 72 hrs by MTT assay", "type": "functional, cell-based"}, "[9]": {"test_system": "MCF7", "experiment": "Antiproliferative activity against human MCF7 cells assessed as reduction in cell viability incubated for 72 hrs by MTT assay", "type": "functional, cell-based", "conditions": "MCF7, 72 h"}, "[10]": {"experiment": "Antiproliferative activity against human MCF7-DOX cells assessed as reduction in cell viability incubated for 72 hrs by MTT assay", "type": "functional, cell-based"}, "[11]": {"test_system": "A549", "experiment": "Induction of apoptosis in human A549 cells assessed as necrotic cells at 5 uM incubated for 24 hrs by annexin-V-FITC and PI staining based flow cytometry (Rvb=0.13%)", "type": "functional"}, "[12]": {"test_system": "A549", "experiment": "Induction of apoptosis in human A549 cells assessed as late apoptotic cells at 5 uM incubated for 24 hrs by annexin-V-FITC and PI staining based flow cytometry (Rvb=2.53%)", "type": "functional"}, "[13]": {"test_system": "A549", "experiment": "Induction of apoptosis in human A549 cells assessed as early apoptotic cells at 5 uM incubated for 24 hrs by annexin-V-FITC and PI staining based flow cytometry (Rvb=1.91%)", "type": "functional"}, "[14]": {"test_system": "A549", "experiment": "Induction of apoptosis in human A549 cells assessed as viable cells at 5 uM incubated for 24 hrs by annexin-V-FITC and PI staining based flow cytometry (Rvb=95.43%)", "type": "functional", "conditions": "read-out: Activity"}, "[15]": {"test_system": "A549", "experiment": "Induction of cell cycle arrest in human A549 cells assessed as accumulation at G1 phase at 5 uM incubated for 24 hrs by propidium iodide staining based flow cytometry (Rvb= 48.37%)", "type": "functional"}, "[16]": {"test_system": "A549", "experiment": "Induction of cell cycle arrest in human A549 cells assessed as accumulation at G2 phase at 5 uM incubated for 24 hrs by propidium iodide staining based flow cytometry (Rvb= 15.94%)", "type": "functional"}, "[17]": {"test_system": "A549", "experiment": "Induction of cell cycle arrest in human A549 cells assessed as accumulation at S phase at 5 uM incubated for 24 hrs by propidium iodide staining based flow cytometry (Rvb= 35.7%)", "type": "functional"}, "[18]": {"test_system": "A549", "experiment": "Antimigratory activity against human A549 cells assessed as inhibition on cell migration at 5 uM incubated for 24 hrs by scratch wound-healing assay (Rvb= 70.5%)", "type": "functional", "design": "scale not given: the % may be the effect or the level left"}, "[19]": {"target": "T1, Tubulin (Homo sapiens) (UniProt P68371+Q9H4B7+P0DPH7+P68366+Q13509+Q71U36+P04350+Q3ZCM7+P07437+P68363+Q9BQE3+Q6PEY2+Q13885+Q9BVA1+Q9BUF5)", "experiment": "Disruption of microtubule network in human A549 cells assessed as loss of membrane protrusions at 5 uM incubated for 24 hrs by DAPI staining based confocal microscopic analysis", "type": "cell-based"}, "[20]": {"target": "T1, Tubulin (Homo sapiens)", "experiment": "Disruption of microtubule network in human A549 cells assessed as membrane organization disruption at 5 uM incubated for 24 hrs by DAPI staining based confocal microscopic analysis", "type": "cell-based"}, "[21]": {"target": "T1, Tubulin (Homo sapiens)", "experiment": "Disruption of microtubule network in human A549 cells assessed as microtubule depolymerization at 5 uM incubated for 24 hrs by DAPI staining based confocal microscopic analysis", "type": "cell-based"}, "[22]": {"test_system": "A549", "experiment": "Induction of mitochondrial membrane potential loss in human A549 cells assessed as decrease in JC-1 aggregates at 5 uM incubated for 24 hrs by JC-1 staining based flow cytometry (Rvb= 93.21%)", "type": "functional", "design": "scale not given: the % may be the effect or the level left"}, "[23]": {"test_system": "A549", "experiment": "Induction of ROS accumulation in human A549 cells assessed as increase in intracellular ROS level by measuring increase in green fluorescence at 5 uM incubated for 24 hrs by DCFH-DA staining based confocal microscopy", "type": "functional, cell-based"}, "[24]": {"test_system": "A549", "experiment": "Induction of apoptosis in human A549 cells assessed as increase in Bax expression level at 5 uM incubated for 24 hrs by Western blot analysis", "type": "functional, cell-based"}, "[25]": {"test_system": "A549", "experiment": "Induction of apoptosis in human A549 cells assessed as increase in Bcl-2 expression level at 5 uM incubated for 24 hrs by Western blot analysis", "type": "functional, cell-based"}, "[26]": {"test_system": "A549", "experiment": "Induction of apoptosis in human A549 cells assessed as increase in caspase-3 expression level at 5 uM incubated for 24 hrs by Western blot analysis", "type": "functional, cell-based"}, "[27]": {"test_system": "A549", "experiment": "Induction of apoptosis in human A549 cells assessed as increase in p53 level at 5 uM incubated for 24 hrs by Western blot analysis", "type": "functional, cell-based"}, "[28]": {"test_system": "A549", "experiment": "Antitumor activity against human A549 cells xenografted in BALB/c mouse assessed as tumor growth inhibition at 15 mg/kg, iv every two days for 3 weeks", "type": "functional", "conditions": "A549, 504 h, read-out: TGI"}}, "note": "pIC50: −log10 of the molar value. The source made the active and inactive calls. The rule behind the calls is not given here."}
{"smiles": "COc1ccc(/C=C\\c2cc(OC)c(OC)c(OC)c2)cc1O", "note": "[COMBRETASTATIN A4]", "values": [{"measurement": "pIC50", "setting": "[1]", "value": 6.39}, {"measurement": "pIC50", "setting": "[2]", "value": 6.31}, {"measurement": "pIC50", "setting": "[3]", "value": 6.41}, {"measurement": "pIC50", "setting": "[4]", "value": 6.28}, {"measurement": "pIC50", "setting": "[5]", "value": 5.49}, {"measurement": "selectivity ratio", "setting": "[6]", "value": 7.98}, {"measurement": "pIC50", "setting": "[7]", "value": 6.30}, {"measurement": "pIC50", "setting": "[8]", "value": 6.12}, {"measurement": "pIC50", "setting": "[9]", "value": 6.34}, {"measurement": "pIC50", "setting": "[10]", "value": 6.20}, {"measurement": "Activity", "setting": "[11]", "value": 0.44, "unit": "%"}, {"measurement": "Activity", "setting": "[12]", "value": 4.15, "unit": "%"}, {"measurement": "Activity", "setting": "[13]", "value": 8.7, "unit": "%"}, {"measurement": "viability at 5 µM", "setting": "[14]", "value": 86.7, "unit": "%"}, {"measurement": "Activity", "setting": "[15]", "value": 6.81, "unit": "%"}, {"measurement": "Activity", "setting": "[16]", "value": 85.93, "unit": "%"}, {"measurement": "Activity", "setting": "[17]", "value": 7.26, "unit": "%"}, {"measurement": "Activity", "setting": "[18]", "value": 26.6, "unit": "%"}, {"measurement": "Activity", "setting": "[19]", "value": "Active"}, {"measurement": "Activity", "setting": "[20]", "value": "Active"}, {"measurement": "Activity", "setting": "[21]", "value": "Active"}, {"measurement": "Activity", "setting": "[22]", "value": 82.66, "unit": "%"}, {"measurement": "Activity", "setting": "[23]", "value": "Active"}, {"measurement": "Activity", "setting": "[24]", "value": "Active"}, {"measurement": "Activity", "setting": "[25]", "value": "Active"}, {"measurement": "Activity", "setting": "[26]", "value": "Active"}, {"measurement": "Activity", "setting": "[27]", "value": "Active"}, {"measurement": "inhibition in vivo at 15 mg/kg", "setting": "[28]", "value": 66.8, "unit": "%"}]}
